Results on two compounds are retold here after publication PMC10850190, “Bifidobacterial GH146 β-L-arabinofuranosidase for the removal of β1,3-L-arabinofuranosides on plant glycans” (Applied Microbiology and Biotechnology, 2024).

The target of this experiment is T1, Bll1HypBA1 (Bifidobacterium longum, UniProt E8MGH8).
T1 construct: gene hypBA1; GH127 enzyme prepared as in earlier reports; homodimer
T1 sequence (E8MGH8 1-658): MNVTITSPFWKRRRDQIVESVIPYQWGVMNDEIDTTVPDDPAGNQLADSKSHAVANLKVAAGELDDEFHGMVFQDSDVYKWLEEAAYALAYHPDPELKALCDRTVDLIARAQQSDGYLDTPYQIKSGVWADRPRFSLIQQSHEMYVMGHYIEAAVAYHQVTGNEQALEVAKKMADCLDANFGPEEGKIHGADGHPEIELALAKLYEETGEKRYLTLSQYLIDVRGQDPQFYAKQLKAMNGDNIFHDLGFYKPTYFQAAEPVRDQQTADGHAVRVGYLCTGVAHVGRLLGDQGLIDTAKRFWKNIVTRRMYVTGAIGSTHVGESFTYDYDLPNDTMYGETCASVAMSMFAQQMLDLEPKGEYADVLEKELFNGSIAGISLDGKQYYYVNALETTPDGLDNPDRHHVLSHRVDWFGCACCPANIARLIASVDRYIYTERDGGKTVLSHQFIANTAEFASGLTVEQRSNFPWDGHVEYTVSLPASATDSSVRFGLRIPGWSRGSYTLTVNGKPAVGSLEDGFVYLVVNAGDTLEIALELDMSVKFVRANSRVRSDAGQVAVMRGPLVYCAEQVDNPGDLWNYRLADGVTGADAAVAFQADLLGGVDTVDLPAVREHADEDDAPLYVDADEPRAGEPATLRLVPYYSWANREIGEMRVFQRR
The experiment can be described thus: TLC, released L-arabinose. The note with it: 50 mM sodium acetate pH 5.5; 37 °C; 16 h. The class given is biochemical.

For `CO[C@@H]1O[C@@H](CO)[C@H](O)[C@H]1O[C@H]1O[C@@H](CO)[C@H](O)[C@H]1O` [β2, Araf-β1,2-Araf-α-OMe], the “TLC, released L-arabinose” value is reported as “Conversely, Bll1HypBA1 completely hydrolyzed these substrates”.

For the compound `CO[C@@H]1O[C@@H](CO[C@H]2O[C@@H](CO)[C@H](O)[C@H]2O)[C@H](O)[C@H]1O` [β5, Araf-β1,5-Araf-α-OMe], the “TLC, released L-arabinose” value is recorded as “Conversely, Bll1HypBA1 completely hydrolyzed these substrates”.
